pIC50: −log10 of the molar value.
System: 945468-187-T-J2-PDC spheroids viability
Assay: Anticancer human tumor 945468-187-T-J2-PDC patient-derived rectal carcinoma cell line growth inhibition [PI3K]
Settings: spheroids with HUVEC and MSC; for pIC50: curve of first compound; for viability, T/C: stronger effect = lower value
Outline: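 We assembled tumor spheroids that included a stromal compartment of HUVEC and MSCs, then exposed them to targeted agents alone and together with PI3K pathway inhibitors. Concentration series descended by half-log from clinically achievable Cmax levels. Viability served as the endpoint.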

[1] = second compound 0.0316 µM, first compound 0.0316 µM
[2] = second compound 0.0316 µM, first compound 0.1 µM
[3] = second compound 0.0316 µM, first compound 0.316 µM
[4] = second compound 0.0316 µM, first compound 1 µM
[5] = second compound 0.0316 µM, first compound 3.16 µM
[6] = second compound 0.0316 µM, first compound 10 µM
[7] = second compound 0.1 µM, first compound 0.0316 µM
[8] = second compound 0.1 µM, first compound 0.1 µM
[9] = second compound 0.1 µM, first compound 0.316 µM
[10] = second compound 0.1 µM, first compound 1 µM
[11] = second compound 0.1 µM, first compound 3.16 µM
[12] = second compound 0.1 µM, first compound 10 µM
[13] = second compound 0.316 µM, first compound 0.0316 µM
[14] = second compound 0.316 µM, first compound 0.1 µM
[15] = second compound 0.316 µM, first compound 0.316 µM
[16] = second compound 0.316 µM, first compound 1 µM
[17] = second compound 0.316 µM, first compound 3.16 µM
[18] = second compound 0.316 µM, first compound 10 µM
[19] = second compound 1 µM, first compound 0.0316 µM
[20] = second compound 1 µM, first compound 0.1 µM
[21] = second compound 1 µM, first compound 0.316 µM
[22] = second compound 1 µM, first compound 1 µM
[23] = second compound 1 µM, first compound 3.16 µM
[24] = second compound 1 µM, first compound 10 µM
[25] = second compound 3.16 µM, first compound 0.0316 µM
[26] = second compound 3.16 µM, first compound 0.1 µM
[27] = second compound 3.16 µM, first compound 0.316 µM
[28] = second compound 3.16 µM, first compound 1 µM
[29] = second compound 3.16 µM, first compound 3.16 µM
[30] = second compound 3.16 µM, first compound 10 µM
[31] = second compound 10 µM, first compound 0.0316 µM
[32] = second compound 10 µM, first compound 0.1 µM
[33] = second compound 10 µM, first compound 0.316 µM
[34] = second compound 10 µM, first compound 1 µM
[35] = second compound 10 µM, first compound 3.16 µM
[36] = second compound 10 µM, first compound 10 µM
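Note: spheroids exposed to compounds for seven days before reading.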

With `CC(C)NCC(C(=O)N1CCN(c2ncnc3c2C(C)CC3O)CC1)c1ccc(Cl)cc1` (stereo not drawn) + Cc1nc(NC(=O)N2CCCC2C(N)=O)sc1-c1ccnc(C(C)(C)C(F)(F)F)c1 the pIC50 (second compound 0.0316 µM) was less than 5.00, the pIC50 (second compound 0.1 µM) was less than 5.00 and the pIC50 (second compound 0.316 µM) was less than 5.00. It also gave a pIC50 (second compound 1 µM) of less than 5.00, a pIC50 (second compound 3.16 µM) of less than 5.00 and a pIC50 (second compound 10 µM) of less than 5.00. The viability, T/C [1] was 110%, the viability, T/C [2] was 138% and the viability, T/C [3] was 140%. For the same compound, the viability, T/C [4] was 110%, the viability, T/C [5] was 108% and the viability, T/C [6] was 96.8%. For the same compound, the viability, T/C [7] was 111%, the viability, T/C [8] was 109% and the viability, T/C [9] was 125%. It also gave a viability, T/C [10] of 103%, a viability, T/C [11] of 106% and a viability, T/C [12] of 115%. The viability, T/C [13] was 99%, the viability, T/C [14] was 117% and the viability, T/C [15] was 99.7%. For the same compound, the viability, T/C [16] was 87.8%, the viability, T/C [17] was 119% and the viability, T/C [18] was 98.4%. The viability, T/C [19] was 106%, the viability, T/C [20] was 119% and the viability, T/C [21] was 109%. It also gave a viability, T/C [22] of 88.6%, a viability, T/C [23] of 121% and a viability, T/C [24] of 98.6%. The viability, T/C [25] was 79.6%, the viability, T/C [26] was 90.4% and the viability, T/C [27] was 103%. For the same compound, the viability, T/C [28] was 95.8%, the viability, T/C [29] was 81.5% and the viability, T/C [30] was 98.2%. The viability, T/C [31] was 95.8%, the viability, T/C [32] was 76.9% and the viability, T/C [33] was 73.6%. For the same compound, the viability, T/C [34] was 88.5%, the viability, T/C [35] was 93.8% and the viability, T/C [36] was 82.5%.
For `CC1(C)CCC(CN2CCN(c3ccc(C(=O)NS(=O)(=O)c4ccc(NCC5CCOCC5)c([N+](=O)[O-])c4)c(Oc4cnc5[nH]ccc5c4)c3)CC2)=C(c2ccc(Cl)cc2)C1` + Cc1nc(NC(=O)N2CCCC2C(N)=O)sc1-c1ccnc(C(C)(C)C(F)(F)F)c1, the pIC50 (second compound 0.0316 µM) was less than 5.00, the pIC50 (second compound 0.1 µM) was less than 5.00 and the pIC50 (second compound 0.316 µM) was less than 5.00. It also gave a pIC50 (second compound 1 µM) of less than 5.00, a pIC50 (second compound 3.16 µM) of less than 5.00 and a pIC50 (second compound 10 µM) of less than 5.00. For the same compound, the viability, T/C [1] was 101%, the viability, T/C [2] was 99.6% and the viability, T/C [3] was 121%. It also gave a viability, T/C [4] of 103%, a viability, T/C [5] of 98.7% and a viability, T/C [6] of 61.4%. It also gave a viability, T/C [7] of 118%, a viability, T/C [8] of 97.5% and a viability, T/C [9] of 116%. The viability, T/C [10] was 99.5%, the viability, T/C [11] was 110% and the viability, T/C [12] was 66.2%. For the same compound, the viability, T/C [13] was 113%, the viability, T/C [14] was 83.7% and the viability, T/C [15] was 108%. It also gave a viability, T/C [16] of 91.7%, a viability, T/C [17] of 80.2% and a viability, T/C [18] of 66.6%. It also gave a viability, T/C [19] of 102%, a viability, T/C [20] of 102% and a viability, T/C [21] of 82.3%. It also gave a viability, T/C [22] of 102%, a viability, T/C [23] of 100% and a viability, T/C [24] of 71.5%. The viability, T/C [25] was 81.4%, the viability, T/C [26] was 91% and the viability, T/C [27] was 72.6%. For the same compound, the viability, T/C [28] was 81.2%, the viability, T/C [29] was 93.8% and the viability, T/C [30] was 59%. For the same compound, the viability, T/C [31] was 83.3%, the viability, T/C [32] was 76.8% and the viability, T/C [33] was 69.8%. For the same compound, the viability, T/C [34] was 71.5%, the viability, T/C [35] was 75.5% and the viability, T/C [36] was 63.7%.
Work on `C[C@@H](NC(=O)c1ncnc(N)c1Cl)c1ncc(C(=O)Nc2cc(C(F)(F)F)c(Cl)cn2)s1` + Cc1nc(NC(=O)N2CCCC2C(N)=O)sc1-c1ccnc(C(C)(C)C(F)(F)F)c1 yielded a pIC50 (second compound 0.0316 µM) of less than 5.00, a pIC50 (second compound 0.1 µM) of less than 5.00 and a pIC50 (second compound 0.316 µM) of less than 5.00. The pIC50 (second compound 1 µM) was less than 5.00, the pIC50 (second compound 3.16 µM) was less than 5.00 and the pIC50 (second compound 10 µM) was less than 5.00. For the same compound, the viability, T/C [1] was 94.3%, the viability, T/C [2] was 92.5% and the viability, T/C [3] was 77.2%. It also gave a viability, T/C [4] of 91.5%, a viability, T/C [5] of 96.2% and a viability, T/C [6] of 69.2%. For the same compound, the viability, T/C [7] was 100%, the viability, T/C [8] was 80.3% and the viability, T/C [9] was 95.8%. It also gave a viability, T/C [10] of 77.4%, a viability, T/C [11] of 105% and a viability, T/C [12] of 93.7%. For the same compound, the viability, T/C [13] was 99.8%, the viability, T/C [14] was 82.9% and the viability, T/C [15] was 123%. The viability, T/C [16] was 93.4%, the viability, T/C [17] was 87% and the viability, T/C [18] was 85%. The viability, T/C [19] was 91.4%, the viability, T/C [20] was 102% and the viability, T/C [21] was 99%. The viability, T/C [22] was 102%, the viability, T/C [23] was 81.1% and the viability, T/C [24] was 86.1%. The viability, T/C [25] was 90.8%, the viability, T/C [26] was 91.5% and the viability, T/C [27] was 92.4%. The viability, T/C [28] was 89%, the viability, T/C [29] was 89.5% and the viability, T/C [30] was 83%. The viability, T/C [31] was 76.3%, the viability, T/C [32] was 70.1% and the viability, T/C [33] was 85.7%. For the same compound, the viability, T/C [34] was 68.7%, the viability, T/C [35] was 72.2% and the viability, T/C [36] was 80.2%.
In the case of `Cn1ncnc1[C@H]1c2n[nH]c(=O)c3cc(F)cc(c23)N[C@@H]1c1ccc(F)cc1` + Cc1nc(NC(=O)N2CCCC2C(N)=O)sc1-c1ccnc(C(C)(C)C(F)(F)F)c1, the pIC50 (second compound 0.0316 µM) was less than 7.00, the pIC50 (second compound 0.1 µM) was less than 7.00 and the pIC50 (second compound 0.316 µM) was less than 7.00. It also gave a pIC50 (second compound 1 µM) of less than 7.00, a pIC50 (second compound 3.16 µM) of less than 7.00 and a pIC50 (second compound 10 µM) of less than 7.00. The viability, T/C (second compound 0.0316 µM, first compound 0.000316 µM) was 103%, the viability, T/C (second compound 0.0316 µM, first compound 0.001 µM) was 83.4% and the viability, T/C (second compound 0.0316 µM, first compound 0.00316 µM) was 130%. The viability, T/C (second compound 0.0316 µM, first compound 0.01 µM) was 100%, the viability, T/C [1] was 91.6% and the viability, T/C [2] was 130%. It also gave a viability, T/C (second compound 0.1 µM, first compound 0.000316 µM) of 106%, a viability, T/C (second compound 0.1 µM, first compound 0.001 µM) of 109% and a viability, T/C (second compound 0.1 µM, first compound 0.00316 µM) of 129%. The viability, T/C (second compound 0.1 µM, first compound 0.01 µM) was 91.2%, the viability, T/C [7] was 117% and the viability, T/C [8] was 131%. For the same compound, the viability, T/C (second compound 0.316 µM, first compound 0.000316 µM) was 110%, the viability, T/C (second compound 0.316 µM, first compound 0.001 µM) was 119% and the viability, T/C (second compound 0.316 µM, first compound 0.00316 µM) was 89.4%. It also gave a viability, T/C (second compound 0.316 µM, first compound 0.01 µM) of 82.2%, a viability, T/C [13] of 117% and a viability, T/C [14] of 117%. For the same compound, the viability, T/C (second compound 1 µM, first compound 0.000316 µM) was 108%, the viability, T/C (second compound 1 µM, first compound 0.001 µM) was 104% and the viability, T/C (second compound 1 µM, first compound 0.00316 µM) was 103%. The viability, T/C (second compound 1 µM, first compound 0.01 µM) was 119%, the viability, T/C [19] was 134% and the viability, T/C [20] was 89.3%. The viability, T/C (second compound 3.16 µM, first compound 0.000316 µM) was 94%, the viability, T/C (second compound 3.16 µM, first compound 0.001 µM) was 97.1% and the viability, T/C (second compound 3.16 µM, first compound 0.00316 µM) was 86.5%. For the same compound, the viability, T/C (second compound 3.16 µM, first compound 0.01 µM) was 90.2%, the viability, T/C [25] was 90.4% and the viability, T/C [26] was 92%. For the same compound, the viability, T/C (second compound 10 µM, first compound 0.000316 µM) was 99.3%, the viability, T/C (second compound 10 µM, first compound 0.001 µM) was 85.5% and the viability, T/C (second compound 10 µM, first compound 0.00316 µM) was 88.6%. The viability, T/C (second compound 10 µM, first compound 0.01 µM) was 77.8%, the viability, T/C [31] was 91.5% and the viability, T/C [32] was 89.8%.

From PubChem BioAssay AID1963972 (Molecular Pharmacology Branch, DTP, NCI, 2024)
